Laboratory results taken from EP0909764A1, “11 Beta-Benzaldoxim-9 Alpha, 10 Alpha-epoxy-estr-4-en-derivatives, a process for their production and pharmaceutical compositions containing them” (JENAPHARM GmbH, priority 1997, dated 1999).

Key:
Progesteronrezeptor = target: T1, Progesteronrezeptor (Oryctolagus cuniculus, UniProt P06186); test: Receptor binding affinity, competitive binding with 3H-ORG 2058 in uterus cytosol; design: species or system Kaninchen; conditions: uterus cytosol of estradiol-primed rabbit; tracer 3H-ORG 2058 5nM; 18 h at 0-4°C; quotient of IC50 values x 100 %
T1 construct: Rezeptoren im Cytosol aus tierischen Target-Organen; from tissue; host or cells: uterus cytosol of estradiol-primed rabbit
T1 sequence (P06186 1-930): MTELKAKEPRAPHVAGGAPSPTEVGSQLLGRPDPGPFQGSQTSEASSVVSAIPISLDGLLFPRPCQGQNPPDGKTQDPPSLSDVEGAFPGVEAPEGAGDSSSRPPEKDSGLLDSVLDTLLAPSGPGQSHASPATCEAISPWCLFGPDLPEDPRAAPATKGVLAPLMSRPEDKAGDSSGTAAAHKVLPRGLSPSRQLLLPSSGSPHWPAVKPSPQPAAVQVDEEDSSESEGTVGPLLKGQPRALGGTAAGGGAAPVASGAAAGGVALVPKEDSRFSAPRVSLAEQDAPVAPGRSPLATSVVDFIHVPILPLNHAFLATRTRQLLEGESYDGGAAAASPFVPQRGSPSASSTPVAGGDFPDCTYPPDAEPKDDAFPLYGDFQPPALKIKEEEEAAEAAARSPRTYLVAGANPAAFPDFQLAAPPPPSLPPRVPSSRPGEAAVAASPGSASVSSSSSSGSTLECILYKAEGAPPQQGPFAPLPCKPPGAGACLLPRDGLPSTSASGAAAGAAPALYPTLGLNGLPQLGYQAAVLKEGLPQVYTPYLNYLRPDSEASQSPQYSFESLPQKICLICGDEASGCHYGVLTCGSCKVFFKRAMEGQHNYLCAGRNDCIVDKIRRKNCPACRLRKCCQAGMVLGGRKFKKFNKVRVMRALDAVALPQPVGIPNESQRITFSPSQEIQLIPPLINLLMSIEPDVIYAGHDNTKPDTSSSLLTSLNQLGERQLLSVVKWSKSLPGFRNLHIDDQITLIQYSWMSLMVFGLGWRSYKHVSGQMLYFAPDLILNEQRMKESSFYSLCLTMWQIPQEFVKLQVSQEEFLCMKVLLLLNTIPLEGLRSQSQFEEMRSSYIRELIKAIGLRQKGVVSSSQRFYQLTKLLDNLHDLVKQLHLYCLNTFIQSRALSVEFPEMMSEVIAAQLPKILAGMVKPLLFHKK
Experimental: (§1) Die Rezeptor-Bindungsaffinität wurde bestimmt durch competitive Bindung eines spezifisch bindenden ^3H-markierten Hormons (Tracer) und der zu testenden Verbindung an Rezeptoren im Cytosol aus tierischen Target-Organen. Dabei wurden Rezeptorsättigung und Reaktionsgleichgewicht angestrebt. Folgende Inkubationsbe-dingungen wurden gewählt: • Progesteron-Rezeptor: Uterus-Cytosol des Estradiol-geprimten Kannchens, aufbe-wahrt bei -30° C. Puffer für Homogenisation und Inkubation: TED-Puffer 20 mM Tris/HCl, pH= 7,4; 1mM Ethylendiamintetraacetat, 2 mM Dithiothreitol) mit 250mM Saccharose. Tracer: ^3H-ORG 2058, 5nM; Referenzsubstanz: Progesteron. • Glucocorticoid-Rezeptor: Thymus-Cytosol der adrenalectomierten Ratte. Thymi aufbewahrt bei -30 °C. Puffer: TED. Tracer: ^3H-Dexamethason, 20nM. Referenzsub-stanz: Dexamethason. • Estrogen-Rezeptor: Uterus-Cytosol des unreifen Kaninchens, aufbewahrt bei -30 °C. Puffer:TED mit 250 mM Saccharose. Tracer: ^3H-Estradiol, 3nM. Referenzsubstanz: 17β-Estradiol.
(§2) Nach einer Inkubation von Rezeptorfraktion, Tracer und Competitor für 18 h bei 0-4°C erfolgte die Trennung von gebundenem und freiem Steroid durch Einmischen von Aktivkohle/Dextran (1 % / 0,1 %), Abzentrifugieren und Messung der rezeptorgebundenen ^3H-Aktivität im Überstand.
Aus der Messung in Konzentrationsreihen wurden die IC50 für die Referenzsubstanz und für die zu testende Verbindung ermittelt und als Quotient beider Werte (x 100 %) die relative molare Bindungsaffinität bestimmt. Nach einer Inkubationsdauer von 18 Stunden bei 0-4 °C erfolgte die Trennung von gebundenen und freiem Steroid durch Einmischen von Aktivkohle/Dextran / 1%/0,1 %), abzentrifugieren und Messung der gebundenen ^3H-Aktivität im Überstand. Aus der Messung in Konzentrationsreihen wurden die IC50 für die zu testende Substanz und für die Referenzverbindung ermittelt und als Quotient beider Werte (x 100 %) die relative molare Bindungsaffinität bestimmt.

Glucocorticoidrezeptor = target: T2, Glucocorticoidrezeptor (Rattus norvegicus, UniProt P06536); test: Receptor binding affinity, competitive binding with 3H-Dexamethason in thymus cytosol; design: species or system Ratte; conditions: thymus cytosol of adrenalectomised rat; tracer 3H-Dexamethason 20nM; 18 h at 0-4°C; quotient of IC50 values x 100 %
T2 construct: Rezeptoren im Cytosol aus tierischen Target-Organen; from tissue; host or cells: thymus cytosol of adrenalectomised rat
T2 sequence (P06536 1-795): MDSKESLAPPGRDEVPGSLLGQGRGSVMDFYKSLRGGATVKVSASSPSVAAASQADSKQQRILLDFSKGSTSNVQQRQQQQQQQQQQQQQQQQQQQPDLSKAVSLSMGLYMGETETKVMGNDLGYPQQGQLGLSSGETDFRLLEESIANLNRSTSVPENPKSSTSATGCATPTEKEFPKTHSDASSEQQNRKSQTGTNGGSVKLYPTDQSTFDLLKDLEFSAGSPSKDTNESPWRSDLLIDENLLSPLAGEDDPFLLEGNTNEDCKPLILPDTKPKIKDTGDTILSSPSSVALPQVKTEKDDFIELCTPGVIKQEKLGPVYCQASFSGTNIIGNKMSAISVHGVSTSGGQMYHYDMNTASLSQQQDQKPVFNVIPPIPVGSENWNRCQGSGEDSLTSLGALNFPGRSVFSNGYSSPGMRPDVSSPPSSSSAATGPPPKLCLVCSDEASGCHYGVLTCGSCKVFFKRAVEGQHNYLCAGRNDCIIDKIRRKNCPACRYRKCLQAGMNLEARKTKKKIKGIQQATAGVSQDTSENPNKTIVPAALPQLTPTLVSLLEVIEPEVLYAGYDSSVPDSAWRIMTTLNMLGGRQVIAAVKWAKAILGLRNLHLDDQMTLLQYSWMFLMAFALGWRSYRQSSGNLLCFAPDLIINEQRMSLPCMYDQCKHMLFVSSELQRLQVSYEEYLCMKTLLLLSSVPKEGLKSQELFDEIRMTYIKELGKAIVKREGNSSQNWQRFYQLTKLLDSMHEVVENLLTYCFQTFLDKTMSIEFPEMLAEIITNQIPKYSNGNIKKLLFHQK
Experimental: as §1, with “Tracer: ^3H-ORG 2058, 5nM; Referenzsubstanz: Progesteron. • Glucocorticoid-Rezeptor: Thymus-Cytosol der adrenalectomierten Ratte.” left out
as §2
Nach einer Inkubationsdauer von 18 Stunden bei 0-4 °C erfolgte die Trennung von gebundenen und freiem Steroid durch Einmischen von Aktivkohle/Dextran / 1%/0,1 %), abzentrifugieren und Messung der gebundenen ^3H-Aktivität im Überstand.

[1] = test system: frühe Gravidität bei der Ratte; test: Inhibition of early pregnancy in the rat (early abortive effect, subcutaneous); format: in vivo; conditions: day 5-7 of pregnancy, empty uteri; for komplette Graviditätshemmung N#/N: N# non-pregnant females / N mated females
Experimental: Rattenweibchen wurde im Stadium Prooestrus angepaart. Bei Nachweis von Spermien im Vaginalbereich am nächsten Tag wird dieser als Tag 1 (d =1) der Gravidität gesetzt. Die Behandlung der Ratten mit Testsubstanz oder Vehikel erfolgt mit 0,2 ml Benzoylbenzoat /Rizinusöl (1+4 v/v) subcutan vom Tag 5 bis Tag 7 (d5 -d7), die Autopsie erfolgt am Tag d 9. Die Rate von vollständig gehemmten Graviditäten in den einzelnen Gruppen ergibt sich aus Tabelle 2. So wurde für die Beispiele 1 (J 1102), 3 (J 1116), 8 (J 1204) und 9 (J 1120) eine um den Faktor 10 überlegene Nidationshemmung gegenüber RU 486 (Mifepriston) ermittelt.

| Compound | relative molare Bindungs-affinität RBA (%) zum Progesteronrezeptor Progesteron = 100 % (Progesteronrezeptor) | relative molare Bindungs-affinität RBA (%) zum Glucocorticoidrezeptor Dexamethason = 100 % (Glucocorticoidrezeptor) | komplette Graviditätshemmung N#/N ([1]; 0,3 mg/Tier/Tag s.c.) | komplette Graviditätshemmung % ([1]; 0,3 mg/Tier/Tag s.c.) | komplette Graviditätshemmung N#/N ([1]; 1 mg/Tier/Tag s.c.) | komplette Graviditätshemmung % ([1]; 1 mg/Tier/Tag s.c.) | komplette Graviditätshemmung N#/N ([1]; 3 mg/Tier/Tag s.c.) | komplette Graviditätshemmung % ([1]; 3 mg/Tier/Tag s.c.) |
| --- | --- | --- | --- | --- | --- | --- | --- | --- |
| COC[C@]1(OC)CC[C@H]2[C@@H]3CCC4=CC(=O)CCC4=C3[C@@H](c3ccc(/C=N/O)cc3)C[C@@]21C [J 867] | 302% | 77% | 0/5 | 0% | 5/5 | 100% | 5/5 | 100% |
| COC[C@]1(OC)CC[C@H]2[C@@H]3CCC4=CC(=O)CC[C@]45O[C@]35[C@@H](c3ccc(/C=N/O)cc3)C[C@@]21C [1 ( J 1102)] | 88% | 12% | – | – | – | – | – | – |
| COC[C@]1(O)CC[C@H]2[C@@H]3CCC4=CC(=O)CC[C@]45O[C@]35[C@@H](c3ccc(/C=N\O)cc3)C[C@@]21C [4 ( J 1182)] | 29% | – | – | – | – | – | – | – |
| CCNC(=O)O/N=C/c1ccc([C@H]2C[C@@]3(C)[C@@H](CC[C@@]3(O)COC)[C@@H]3CCC4=CC(=O)CC[C@]45O[C@]235)cc1 [16 ( J 1186)] | 64% | 13% | – | – | – | – | – | – |
| COC[C@]1(O)CC[C@H]2[C@@H]3CCC4=CC(=O)CC[C@]45O[C@]35[C@@H](c3ccc(/C=N/O)cc3)C[C@@]21C [3 ( J 1116)] | 47% | 12% | – | – | – | – | – | – |
| CCNC(=O)O/N=C/c1ccc([C@H]2C[C@@]3(C)[C@@H](CC[C@]3(COC)OC)[C@@H]3CCC4=CC(=O)CC[C@]45O[C@]235)cc1 [17 ( J 1131)] | 68% | 30% | – | – | – | – | – | – |
| COC[C@]1(OC)CC[C@H]2[C@@H]3CCC4=CC(=O)CC[C@]45O[C@]35[C@@H](c3ccc(/C=N\O)cc3)C[C@@]21C [2 ( J 1160)] | 49% | 18% | – | – | – | – | – | – |
| CC#C[C@]1(O)CC[C@H]2[C@@H]3CCC4=CC(=O)CCC4=C3[C@@H](c3ccc(N(C)C)cc3)C[C@@]21C [RU 486, Mifepriston] | – | 685% | 0/5 | 0% | 1/5 | 20% | 5/5 | 100% |
| COC[C@]1(OC)CC[C@H]2[C@@H]3CCC4=CC(=O)CC[C@]45O[C@]35[C@@H](c3ccc(/C=N/OC(C)=O)cc3)C[C@@]21C [5 ( J 1130)] | 59% | 15% | – | – | – | – | – | – |
| CCOC(=O)O/N=C/c1ccc([C@H]2C[C@@]3(C)[C@@H](CC[C@]3(COC)OC)[C@@H]3CCC4=CC(=O)CC[C@]45O[C@]235)cc1 [9 ( J 1120)] | 63% | 15% | – | – | – | – | – | – |
| COC[C@]1(O)CC[C@H]2[C@@H]3CCC4=CC(=O)CC[C@]45O[C@]35[C@@H](c3ccc(/C=N/OC(C)=O)cc3)C[C@@]21C [6 ( J 1180)] | 31% | 8% | – | – | – | – | – | – |
| CN(C)c1ccc([C@H]2C[C@]3(C)[C@@H](CC[C@]3(O)CCCO)[C@@H]3CCC4=CC(=O)CCC4=C32)cc1 [ZK 98299, Onapriston] | 22% | 39% | – | – | – | – | – | – |
